Assay results taken from patent publication US9611251B2, “Substituted piperidine compounds and their use as orexin receptor modulators” (Janssen Pharmaceutica NV, priority 2013, dated 2017).

Key:
human orexin 2 receptor = human orexin 2 receptor (Homo sapiens (Human), UniProt O43614); experiment: Human orexin 2 receptor radioligand binding ([3H]-EMPA); settings: averages of 2-20 runs, read-out: hOX2 Ki
Procedure, shortened: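 Competition binding using homogenized HEK293 cells stably expressing human orexin 2 receptor, [3H]-EMPA at 2 nM final and ≤0.1% DMSO; nonspecific binding set with 10 μM almorexant. Filter-bound radioactivity counted by scintillation; one-site competition IC50 converted to Ki using pre-determined Kd, compounds run in triplicate.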

human orexin 1 receptor = human orexin 1 receptor (Homo sapiens, UniProt O43613); experiment: Human orexin 1 receptor radioligand binding; settings: human orexin 1 receptor radioligand binding; averages of 2-20 runs; read-out: hOX1 Ki
rat orexin 1 receptor = rat orexin 1 receptor (Rattus norvegicus, UniProt P56718); experiment: Rat orexin 1 receptor radioligand binding; settings: rat orexin 1 receptor radioligand binding; averages of 2-20 runs; read-out: rOX1 Ki
Procedure, shortened: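 Cell-suspension competition binding used 4 nM final tritiated thiazolyl-pyrrolidinyl-methanone radioligand in PBS, ≤0.1% DMSO, with 10 µM almorexant defining nonspecific binding. Filter-bound radioactivity was counted in triplicate. IC50 came from one-site competition fits and was converted to Ki using the predetermined Kd.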

Sequence of human orexin 2 receptor (O43614 whole entry): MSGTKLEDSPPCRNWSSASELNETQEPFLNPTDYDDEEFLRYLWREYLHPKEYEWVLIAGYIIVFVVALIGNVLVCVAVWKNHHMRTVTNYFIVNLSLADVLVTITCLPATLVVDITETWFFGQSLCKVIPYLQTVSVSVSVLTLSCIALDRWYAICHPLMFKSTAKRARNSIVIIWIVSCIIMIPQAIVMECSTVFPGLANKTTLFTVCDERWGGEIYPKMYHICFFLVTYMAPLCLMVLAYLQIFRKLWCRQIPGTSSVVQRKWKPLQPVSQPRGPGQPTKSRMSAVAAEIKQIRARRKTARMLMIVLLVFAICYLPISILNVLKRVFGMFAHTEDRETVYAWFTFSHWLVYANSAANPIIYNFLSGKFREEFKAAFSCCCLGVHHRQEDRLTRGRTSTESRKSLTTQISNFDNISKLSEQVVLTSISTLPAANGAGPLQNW

SMILES | Ki (human orexin 2 receptor) [µM] | Ki (human orexin 1 receptor) [µM] | Ki (rat orexin 1 receptor) [µM]
C[C@H]1[C@H](Oc2cnc(C(F)(F)F)cn2)CCCN1C(=O)c1cccc(F)c1-n1nccn1 [Example 125, (3-fluoro-2-(2H-1,2,3-triazol-2-yl)phenyl)((2S,3R)-2-methyl-3-((5-(trifluoromethyl)pyrazin-2-yl)oxy)piperidin-1-yl)methanone] | 2.5 | 0.138 | 0.117
C[C@H]1[C@H](Oc2ccc(C(F)(F)F)cn2)CCCN1C(=O)c1cc(F)ccc1-c1ncccn1 [Example 138, (5-fluoro-2-(pyrimidin-2-yl)phenyl)((2S,3R)-2-methyl-3-((5-(trifluoromethyl)pyridin-2-yl)oxy)piperidin-1-yl)methanone] | 0.544 | 0.018 | 0.02
C[C@H]1[C@H](Oc2ccc(C(F)(F)F)cn2)CCCN1C(=O)c1ccc(F)cc1-c1ncccn1 [Example 139, (4-fluoro-2-(pyrimidin-2-yl)phenyl)((2S,3R)-2-methyl-3-((5-(trifluoromethyl)pyridin-2-yl)oxy)piperidin-1-yl)methanone] | 1.2 | 0.051 | 0.051
C[C@H]1[C@H](Oc2ccc(C(F)(F)F)cn2)CCCN1C(=O)c1ccccc1-c1ncc(F)cn1 [Example 141, (2-(5-fluoropyrimidin-2-yl)phenyl)((2S,3R)-2-methyl-3-((5-(trifluoromethyl)pyridin-2-yl)oxy)piperidin-1-yl)methanone] | 0.676 | 0.022 | 0.031
C[C@H]1[C@H](Oc2ccc(C(F)(F)F)cn2)CCCN1C(=O)c1ccccc1-c1ncccn1 [Example 143, ((2S,3R)-2-methyl-3-((5-(trifluoromethyl)pyridin-2-yl)oxy)piperidin-1-yl)(2-(pyrimidin-2-yl)phenyl)methanone] | 0.473 | 0.015 | 0.025
C[C@H]1[C@H](Oc2ccc(C(F)(F)F)cn2)CCCN1C(=O)c1ccc(F)cc1-n1nccn1 [Example 147, (4-fluoro-2-(2H-1,2,3-triazol-2-yl)phenyl)((2S,3R)-2-methyl-3-((5-(trifluoromethyl)pyridin-2-yl)oxy)piperidin-1-yl)methanone] | 0.765 | 0.031 | 0.05
Cc1cnc(-n2nccn2)c(C(=O)N2CCC[C@@H](Oc3ccc(C(F)(F)F)cn3)[C@@H]2C)c1 [Example 149, (5-methyl-2-(2H-1,2,3-triazol-2-yl)pyridin-3-yl)((2S,3R)-2-methyl-3-((5-(trifluoromethyl)pyridin-2-yl)oxy)piperidin-1-yl)methanone] | 5.6 | 0.018 | 0.024
Cc1ccc(C(=O)N2CCC[C@@H](Oc3ccc(C(F)(F)F)cn3)[C@@H]2C)c(-n2nccn2)n1 [Example 150, (6-methyl-2-(2H-1,2,3-triazol-2-yl)pyridin-3-yl)((2S,3R)-2-methyl-3-((5-(trifluoromethyl)pyridin-2-yl)oxy)piperidin-1-yl)methanone] | > 10 | 0.039 | 0.032
Cc1cccc(C(=O)N2CCC[C@@H](Oc3ccc(C(F)(F)F)cn3)[C@@H]2C)c1-c1ncccn1 [Example 151, (3-methyl-2-(pyrimidin-2-yl)phenyl)((2S,3R)-2-methyl-3-((5-(trifluoromethyl)pyridin-2-yl)oxy)piperidin-1-yl)methanone] | 0.537 | 0.031 | 0.035
Cc1cccc(C(=O)N2CCC[C@@H](Oc3ccc(C(F)(F)F)cn3)[C@@H]2C)c1-n1nccn1 [Example 152, (3-methyl-2-(2H-1,2,3-triazol-2-yl)phenyl)((2S,3R)-2-methyl-3-((5-(trifluoromethyl)pyridin-2-yl)oxy)piperidin-1-yl)methanone] | 0.412 | 0.02 | 0.028
C[C@H]1[C@H](Oc2ncc(C(F)(F)F)cc2F)CCCN1C(=O)c1ccccc1-c1ncccn1 [Example 154, ((2S,3R)-3-((3-fluoro-5-(trifluoromethyl)pyridin-2-yl)oxy)-2-methylpiperidin-1-yl)(2-(pyrimidin-2-yl)phenyl)methanone] | 0.526 | 0.022 | 0.046
C[C@H]1[C@H](Oc2ncc(C(F)(F)F)cc2F)CCCN1C(=O)c1cccc(F)c1-c1ncccn1 [Example 155, (3-fluoro-2-(pyrimidin-2-yl)phenyl)((2S,3R)-3-((3-fluoro-5-(trifluoromethyl)pyridin-2-yl)oxy)-2-methylpiperidin-1-yl)methanone] | 1.1 | 0.016 | 0.028
C[C@H]1[C@H](Oc2ncc(C(F)(F)F)cc2F)CCCN1C(=O)c1ccccc1-c1ncc(F)cn1 [Example 156, ((2S,3R)-3-((3-fluoro-5-(trifluoromethyl)pyridin-2-yl)oxy)-2-methylpiperidin-1-yl)(2-(5-fluoropyrimidin-2-yl)phenyl)methanone] | 1.3 | 0.03 | 0.047
Cc1cnc(-n2nccn2)c(C(=O)N2CCC[C@@H](Oc3ncc(C(F)(F)F)cc3F)[C@@H]2C)c1 [Example 157, ((2S,3R)-3-((3-fluoro-5-(trifluoromethyl)pyridin-2-yl)oxy)-2-methylpiperidin-1-yl)(5-methyl-2-(2H-1,2,3-triazol-2-yl)pyridin-3-yl)methanone] | > 10 | 0.027 | 0.049
Cc1cccc(C(=O)N2CCC[C@@H](Oc3ncc(C(F)(F)F)cc3F)[C@@H]2C)c1-n1nccn1 [Example 158, ((2S,3R)-3-((3-fluoro-5-(trifluoromethyl)pyridin-2-yl)oxy)-2-methylpiperidin-1-yl)(3-methyl-2-(2H-1,2,3-triazol-2-yl)phenyl)methanone] | 0.575 | 0.034 | 0.036
C[C@H]1[C@H](Oc2ncc(C(F)(F)F)cc2F)CCCN1C(=O)c1cccc(F)c1-n1nccn1 [Example 159, (3-fluoro-2-(2H-1,2,3-triazol-2-yl)phenyl)((2S,3R)-3-((3-fluoro-5-(trifluoromethyl)pyridin-2-yl)oxy)-2-methylpiperidin-1-yl)methanone] | 1.55 | 0.014 | 0.06
Cc1ccc(-n2nccn2)c(C(=O)N2CCC[C@@H](Oc3ncc(C(F)(F)F)cc3F)[C@@H]2C)n1 [Example 160, ((2S,3R)-3-((3-fluoro-5-(trifluoromethyl)pyridin-2-yl)oxy)-2-methylpiperidin-1-yl)(6-methyl-3-(2H-1,2,3-triazol-2-yl)pyridin-2-yl)methanone] | 0.62 | 0.022 | 0.023
C[C@H]1[C@H](Oc2ncc(Cl)cn2)CCCN1C(=O)c1cccc(F)c1-n1nccn1 [Example 161, ((2S,3R)-3-((5-chloropyrimidin-2-yl)oxy)-2-methylpiperidin-1-yl)(3-fluoro-2-(2H-1,2,3-triazol-2-yl)phenyl)methanone] | 3.2 | 0.395 | 0.226
Cc1ccc(-n2nccn2)c(C(=O)N2CCC[C@@H](Oc3ncc(Cl)cn3)[C@@H]2C)n1 [Example 164, ((2S,3R)-3-((5-chloropyrimidin-2-yl)oxy)-2-methylpiperidin-1-yl)(6-methyl-3-(2H-1,2,3-triazol-2-yl)pyridin-2-yl)methanone] | 3.8 | 0.23 | 0.144
C[C@H]1[C@H](Oc2ncc(C(F)(F)F)cn2)CCCN1C(=O)c1ccccc1-c1ncc(F)cn1 [Example 165, (2-(5-fluoropyrimidin-2-yl)phenyl)((2S,3R)-2-methyl-3-((5-(trifluoromethyl)pyrimidin-2-yl)oxy)piperidin-1-yl)methanone] | 4.4 | 0.077 | 0.059
C[C@H]1[C@H](Oc2cnc(C(F)(F)F)cn2)CCCN1C(=O)c1ccccc1-c1ncc(F)cn1 [Example 166, (2-(5-fluoropyrimidin-2-yl)phenyl)((2S,3R)-2-methyl-3-((5-(trifluoromethyl)pyrazin-2-yl)oxy)piperidin-1-yl)methanone] | 3.1 | 0.124 | 0.097
Cc1cccc(C(=O)N2CCC[C@@H](Oc3ncc(C(F)(F)F)cn3)[C@@H]2C)c1-c1ncccn1 [Example 167, (3-methyl-2-(pyrimidin-2-yl)phenyl)((2S,3R)-2-methyl-3-((5-(trifluoromethyl)pyrimidin-2-yl)oxy)piperidin-1-yl)methanone] | 1.8 | 0.028 | 0.03
C[C@H]1[C@H](Oc2cnc(C(F)(F)F)cn2)CCCN1C(=O)c1ccccc1-c1ncccn1 [Example 168, ((2S,3R)-2-methyl-3-((5-(trifluoromethyl)pyrazin-2-yl)oxy)piperidin-1-yl)(2-(pyrimidin-2-yl)phenyl)methanone] | 0.951 | 0.025 | 0.029
C[C@H]1[C@H](Oc2ncc(C(F)(F)F)cn2)CCCN1C(=O)c1ccccc1-c1ncccn1 [Example 169, ((2S,3R)-2-methyl-3-((5-(trifluoromethyl)pyrimidin-2-yl)oxy)piperidin-1-yl)(2-(pyrimidin-2-yl)phenyl)methanone] | 1.2 | 0.023 | 0.032
Cc1cccc(C(=O)N2CCC[C@@H](Oc3ncc(C(F)(F)F)cn3)[C@@H]2C)c1-c1ncc(F)cn1 [Example 170, (2-(5-fluoropyrimidin-2-yl)-3-methylphenyl)((2S,3R)-2-methyl-3-((5-(trifluoromethyl)pyrimidin-2-yl)oxy)piperidin-1-yl)methanone] | 2.8 | 0.049 | 0.048
